Measurements taken from ChEMBL document CHEMBL1142597, “Arugosins G and H: prenylated polyketides from the marine-derived fungus Emericellanidulans var. acristata” (J Nat Prod, 2006).
Active and inactive are the calls of the source. The calls are words filed in the database; no cut-off is given here.

Tests used:
PBMC [1] = test: Stimulation of IFN-gamma production in human PBMC at 0.1 ug/mL after 24 hrs by flow cytometry with cytometric bead array method; format: functional, cell-based
PBMC [2] = test: Stimulation of IL10 production in human PBMC at 0.1 ug/mL after 24 hrs by flow cytometry with cytometric bead array method; format: functional, cell-based
PBMC [3] = test: Stimulation of IL2 production in human PBMC at 0.1 ug/mL after 24 hrs by flow cytometry with cytometric bead array method; format: functional, cell-based
Mycotypha microspora = test: Antifungal activity against Mycotypha microspora at 50 ug/disk by agar diffusion assay; format: functional; settings: read-out: IZ
PBMC [4] = test: Stimulation of IFN-gamma production in human PBMC at 1 ug/mL after 24 hrs by flow cytometry with cytometric bead array method; format: functional, cell-based
PBMC [5] = test: Stimulation of IL6 production in human PBMC at 1 ug/mL after 24 hrs by flow cytometry with cytometric bead array method; format: functional, cell-based
PBMC [6] = test: Stimulation of IL10 production in human PBMC at 1 ug/mL after 24 hrs by flow cytometry with cytometric bead array method; format: functional, cell-based
PBMC [7] = test: Stimulation of IL6 production in human PBMC at 0.1 ug/mL after 24 hrs by flow cytometry with cytometric bead array method; format: functional, cell-based
PBMC [8] = test: Cytotoxicity against human PBMC at 1 ug/mL; format: cell-based
[Chlorella] fusca = Antialgal activity against 'Chlorella' fusca at 50 ug/disk by agar diffusion assay; format: functional; settings: Scenedesmus fuscus; read-out: IZ
PBMC [9] = test: Stimulation of TNFalpha production in human PBMC at 1 ug/mL after 24 hrs by flow cytometry with cytometric bead array method; format: functional, cell-based
PBMC [10] = test: Stimulation of IL4 production in human PBMC at 0.1 ug/mL after 24 hrs by flow cytometry with cytometric bead array method; format: functional, cell-based
PBMC [11] = test: Cytotoxicity against human PBMC at 0.1 ug/mL; format: cell-based
PBMC [12] = test: Stimulation of IL2 production in human PBMC at 1 ug/mL after 24 hrs by flow cytometry with cytometric bead array method; format: functional, cell-based
PBMC [13] = test: Stimulation of IL4 production in human PBMC at 1 ug/mL after 24 hrs by flow cytometry with cytometric bead array method; format: functional, cell-based
PBMC [14] = test: Stimulation of TNFalpha production in human PBMC at 0.1 ug/mL after 24 hrs by flow cytometry with cytometric bead array method; format: functional, cell-based

Compound | Activity (PBMC [1]) | Activity (PBMC [2]) | Activity (PBMC [3]) | zone of inhibition at 50 µg/disc (Mycotypha microspora) [mm] | Activity (PBMC [4]) | Activity (PBMC [5]) | Activity (PBMC [6]) | Activity (PBMC [7]) | Activity (PBMC [8]) | zone of inhibition at 50 µg/disc ([Chlorella] fusca) [mm] | Activity (PBMC [9]) | Activity (PBMC [10]) | Activity (PBMC [11]) | Activity (PBMC [12]) | Activity (PBMC [13]) | Activity (PBMC [14])
CC(C)=CCc1ccc(O)c(C(=O)c2c(O)cc(C)c(O)c2C=O)c1O [ARUGOSINS H] | inactive | inactive | inactive | 3 | inactive | inactive | inactive | inactive | Non-toxic | 2 | inactive | inactive | Non-toxic | inactive | inactive | inactive
CC(C)=CCOc1c(C)cc(O)c2c1C(O)Oc1ccc(CC=C(C)C)c(O)c1C2=O (centres undefined) [ARUGOSIN A] | inactive | inactive | inactive |  | inactive | inactive | inactive | inactive | Non-toxic |  | inactive | inactive | Non-toxic | inactive | inactive | inactive
C=C1CC[C@@H]2[C@](C)(CC[C@H](O)[C@@]2(C)CCC=C(C)C)[C@@H]1Cc1c[nH]c2ccccc12 [EMINDOLE DA] | inactive | inactive | inactive |  | inactive | inactive | inactive | inactive | Non-toxic |  | inactive | inactive | Non-toxic | inactive | inactive | inactive
C=C(C)[C@H]1COc2c(C)cc3oc4c(CC=C(C)C)ccc(O)c4c(=O)c3c2[C@@H]1O [SHAMIXANTHONE] | inactive | inactive | inactive |  | inactive | inactive | inactive | inactive | Non-toxic |  | inactive | inactive | Non-toxic | inactive | inactive | inactive
CC(C)=CCOc1c(C)cc2oc3c(CC=C(C)C)ccc(O)c3c(=O)c2c1CO [EMERICELLIN] | inactive | inactive | inactive |  | inactive | inactive | inactive | inactive | Non-toxic |  | inactive | inactive | Non-toxic | inactive | inactive | inactive
CC(C)=CCOc1c(C)cc(O)c2c1C(O)Oc1c(CC=C(C)C)ccc(O)c1C2=O (centres undefined) [ARUGOSIN B] | inactive | inactive | inactive |  | inactive | inactive | inactive | inactive | Non-toxic |  | inactive | inactive | Non-toxic | inactive | inactive | inactive
O=C1OC(O)C(Cc2ccccc2)=C1c1ccccc1 (centres undefined) [MICROPERFURANONE] | inactive | inactive | inactive |  | inactive | inactive | inactive | inactive | Non-toxic |  | inactive | inactive | Non-toxic | inactive | inactive | inactive
CC(C)=CCOc1c(C)cc(O)c2c1C(O)Oc1c(CC=C(C)C)cc(CC=C(C)C)c(O)c1C2=O (centres undefined) [ARUGOSINS G] | inactive | inactive | inactive |  | inactive | inactive | inactive | inactive | Non-toxic |  | inactive | inactive | Non-toxic | inactive | inactive | inactive
